#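 96-well plates; 48 h exposure; 5 concentrations. Endpoints by linear interpolation between flanking doses. Not reached: highest tested concentration assigned. Here, GI50 denotes the concentration required for 50% inhibition of growth. TGI is the concentration that stops growth completely.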
# Experiments:
# Experiment in all cases: inhibition of tumour cell growth, NCI panel, 48 h
# [1] = test system: K-562 leukemia
# [2] = test system: HT29 colon
# [3] = test system: NCI-H522 lung
# [4] = test system: SK-MEL-28 melanoma
# [5] = test system: UO-31 renal
# [6] = test system: DU-145 prostate
# [7] = test system: NCI-H23 lung
# [8] = test system: CAKI-1 renal
# [9] = test system: HCT-116 colon
# [10] = test system: OVCAR-8 ovarian
# [11] = test system: COLO 205 colon
# [12] = test system: SK-OV-3 ovarian
# [13] = test system: BT-549 breast
# [14] = test system: A549 NSCLC
# [15] = test system: SF-295 CNS
# [16] = test system: SF-268 CNS
# [17] = test system: OVCAR-4 ovarian
# [18] = test system: EKVX NSCLC
# [19] = test system: MDA-MB-435
# [20] = test system: M14 melanoma
# [21] = test system: 786-0 renal
# [22] = test system: CCRF-CEM leukemia
# [23] = test system: MALME-3M melanoma
# [24] = test system: MDA-MB-231 breast
# [25] = test system: RPMI-8226 leukemia
# [26] = test system: NCI/ADR-RES ovarian
# [27] = test system: UACC-257 melanoma
# [28] = test system: HCT-15 colon
smiles,measurement,setting,value
c1cc(N2CCN(c3ccc(C4=NCCN4)cc3)CC2)ccc1C1=NCCN1,GI50,[1],39.4 µM
same,TGI,[1],> 100 µM
same,GI50,[2],> 100 µM
same,TGI,[2],> 100 µM
same,GI50,[3],21.2 µM
same,TGI,[3],> 77.3 µM
same,GI50,[4],> 67.5 µM
same,TGI,[4],> 100 µM
same,GI50,[5],> 72 µM
same,TGI,[5],> 100 µM
same,GI50,[6],45.7 µM
same,TGI,[6],> 100 µM
same,GI50,[7],> 44.4 µM
same,TGI,[7],> 100 µM
same,GI50,[8],> 57.5 µM
same,TGI,[8],> 100 µM
same,GI50,[9],> 100 µM
same,TGI,[9],> 100 µM
same,GI50,[10],37.2 µM
same,TGI,[10],> 100 µM
same,GI50,[11],> 100 µM
same,TGI,[11],> 100 µM
same,GI50,[12],> 100 µM
same,TGI,[12],> 100 µM
same,GI50,[13],24.9 µM
same,TGI,[13],> 84.5 µM
same,GI50,[14],66.7 µM
same,TGI,[14],> 100 µM
same,GI50,[15],24.8 µM
same,TGI,[15],> 80.4 µM
same,GI50,[16],> 75.3 µM
same,TGI,[16],> 100 µM
same,GI50,[17],> 100 µM
same,TGI,[17],> 100 µM
same,GI50,[18],11.5 µM
same,TGI,[18],65.2 µM
same,GI50,[19],58 µM
same,TGI,[19],> 100 µM
same,GI50,[20],> 61 µM
same,TGI,[20],> 100 µM
same,GI50,[21],> 68.9 µM
same,TGI,[21],> 100 µM
same,GI50,[22],> 87.4 µM
same,TGI,[22],> 100 µM
same,GI50,[23],48.8 µM
same,TGI,[23],> 100 µM
same,GI50,[24],> 100 µM
same,TGI,[24],> 100 µM
same,GI50,[25],12.8 µM
same,TGI,[25],> 53.5 µM
same,GI50,[26],> 100 µM
same,TGI,[26],> 100 µM
same,GI50,[27],58.7 µM
same,TGI,[27],97.5 µM
same,GI50,[28],66.3 µM
same,TGI,[28],> 100 µM

# Reference: PubChem BioAssay (NCI)
